18 compounds from US11279735B2, “Cyclic peptide antibiotics” (priority 2017, dated 2022) can be followed below.

Structures are written as SMILES. Converted amounts (≈) assume the structure as drawn. *1 amine or outer side, *2 acyl side, *3 side chain or, on linkers, in order; H or OH if unused. Where a SMILES comes first, the peptide text is derived from it. [ ]: non-standard residue; d: D form. The star is where a group is joined. X13 = C[C@H](CO[C@H](CC1CC2(CCC2)C1)[C@@H](C)C(=O)[*:2])N[*:1]; X1 = CCCCCC[C@@H](C(=O)[*:2])[C@@H](C)OC[C@@H](C)N[*:1]; X17 = CCCCCC[C@@H](O[C@H](C)CN[*:1])[C@@H](C)C(=O)[*:2]; X2 = CCCCCC[C@@H](OC[C@@H](C)N[*:1])[C@@H](C)C(=O)[*:2]; X21 = C[C@H](CO[C@@H]1CCCCCC[C@H]1C(=O)[*:2])N[*:1]; X14 = CCCCCC[C@@H](OCCN[*:1])[C@@H](C)C(=O)[*:2]; Cyclobutyl(trans-3-NH2) = N[C@H]1C[C@H](*)C1; Gly(cHept) = N[C@H](C(=O)O)C1CCCCCC1; aThr = C[C@H](O)[C@H](N)C(=O)O; NMeL = CN[C@@H](CC(C)C)C(=O)O; Chg = N[C@H](C(=O)O)C1CCCCC1; NMeNva = CCC[C@H](NC)C(=O)O; Dap = NC[C@H](N)C(=O)O; X22 = C1CC(*)CCN1

The test system of one experiment is Escherichia coli (E. coli) strain CFT073 ATCC 700928. It is filed as cell-based. The note with it: ATCC 700928, 22 h. In short, it runs like this: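 Broth microdilution MIC per CLSI M07-A8 in cation-adjusted Mueller Hinton II broth with 0.002% Tween-80. Ten-point 2-fold series topped at 64, 4, 0.5 or 0.13 μg/mL depending on protocol. Final inoculum OD600 0.0005, incubated 22 h at 35 °C.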
As a reminder, the MIC is the lowest concentration found to suppress growth. The low end stands for greater potency, the high end for weaker potency. Turning to `CCC[C@H]1C(=O)N[C@@H](C2CCCCC2)C(=O)N[C@@H](CN)C(=O)N[C@@H]([C@H](C)O)C(=O)N[C@H](C)CO[C@@H]2CCCCCC[C@H]2C(=O)N1C` [Example 86, (3R,6S,9S,12S,15S,17aR,23aR)-9-(Aminomethyl)-12-cyclohexyl-6-((S)-1-hydroxyethyl)-3,16-dimethyl-15-propyloctadecahydrocycloocta[r][1]oxa[4,7,10,13,16]pentaazacyclononadecine-5,8,11,14,17(2H)-pentaone] (cyclo([Chg][Dap][aThr][X21][NMeNva])), the MIC came to 50 µM (≈ 32.5 µg/mL).
On the same count and under the same terms, the value for `CCCCCC[C@H]1OC[C@@H](C)NC(=O)[C@H](CO[C@H]2C[C@H](N)C2)NC(=O)[C@H](CN)NC(=O)[C@H](C2CCCCCC2)NC(=O)[C@H](CCC)N(C)C(=O)[C@@H]1C` [Example 146, (3R,6S,9S,12S,15S,18R,19R)-6-[(3-aminocyclobutoxy)methyl]-9-(aminomethyl)-12-cycloheptyl-19-hexyl-3,16,18-trimethyl-15-propyl-1-oxa-4,7,10,13,16-pentazacyclononadecane-5,8,11,14,17-pentone] (cyclo([Dap]S(Cyclobutyl(trans-3-NH2))[X2][NMeNva][Gly(cHept)])) was 6.3 µM (≈ 4.64 µg/mL); that for `CCCCCC[C@H]1OC[C@@H](C)NC(=O)[C@H](COc2cccc(CN)c2)NC(=O)[C@H](CN)NC(=O)[C@H](C2CCCCC2)NC(=O)[C@H](CC(C)C)N(C)C(=O)[C@@H]1C` [Example 167, (3R,6S,9S,12S,15S,18R,19R)-9-(Aminomethyl)-6-((3-(aminomethyl)phenoxy)methyl)-12-cyclohexyl-19-hexyl-15-isobutyl-3,16,18-trimethyl-1-oxa-4,7,10,13,16-pentaazacyclononadecane-5,8,11,14,17-pentaone] was 1.6 µM (≈ 1.24 µg/mL).
In turn, `CCCCCC[C@H]1O[C@H](C)CNC(=O)[C@H]([C@H](C)O)NC(=O)[C@H](CN)NC(=O)[C@H](C2CCCCC2)NC(=O)[C@H](CC(C)C)N(C)C(=O)[C@@H]1C` [Example 140, (2R,6S,9S,12S,15S,18R,19R)-9-(aminomethyl)-12-cyclohexyl-19-hexyl-15-isobutyl-2,16,18-trimethyl-6-[(1S)-1-hydroxyethyl]-1-oxa-4,7,10,13,16-pentazacyclononadecane-5,8,11,14,17-pentone] (cyclo([Chg][Dap][aThr][X17][NMeL])) came in with a minimum inhibitory concentration (MIC) of 35 µM (≈ 23.8 µg/mL).
For `CCCCCC[C@H]1C(=O)N(C)[C@@H](CCC)C(=O)N[C@@H](C2CCCCC2)C(=O)N[C@@H](CN)C(=O)N[C@@H]([C@H](C)O)C(=O)N[C@H](C)CO[C@@H]1C` [Example 150, (3R,6S,9S,12S,15S,18R,19R)-9-(Aminomethyl)-12-cyclohexyl-18-hexyl-6-((S)-1-hydroxyethyl)-3,16,19-trimethyl-15-propyl-1-oxa-4,7,10,13,16-pentaazacyclononadecane-5,8,11,14,17-pentaone] (cyclo([Chg][Dap][aThr][X1][NMeNva])), the MIC amounted to 25 µM (≈ 16.7 µg/mL).
`CCC[C@H]1C(=O)N[C@@H](C2CCCCCC2)C(=O)N[C@@H](CN)C(=O)N[C@@H](COC2CCNCC2)C(=O)N[C@H](C)CO[C@H](CC2CC3(CCC3)C2)[C@@H](C)C(=O)N1C` [Example 163, (3R,6S,9S,12S,15S,18R,19R)-9-(Aminomethyl)-12-cycloheptyl-3,16,18-trimethyl-6-((piperidin-4-yloxy)methyl)-15-propyl-19-(spiro[3.3]heptan-2-ylmethyl)-1-oxa-4,7,10,13,16-pentaazacyclononadecane-5,8,11,14,17-pentaone] (cyclo([Dap]S(X22)[X13][NMeNva][Gly(cHept)])) came in with an MIC of 4.4 µM (≈ 3.41 µg/mL).
Still for that read-out and setting: the value for `CCCCCC[C@H]1OC(=O)CNC(=O)[C@H]([C@H](C)O)NC(=O)[C@H](CN)NC(=O)[C@H]([C@H](C)CC)NC(=O)[C@H](CC(C)C)N(C)C(=O)[C@@H]1C` [Example 34, (6S,9S,12S,15S,18R,19R)-9-(aminomethyl)-19-hexyl-6-[(1S)-1-hydroxyethyl]-15-isobutyl-16,18-dimethyl-12-[(1R)-1-methylpropyl]-1-oxa-4,7,10,13,16-pentazacyclononadecane-2,5,8,11,14,17-hexone] was 9.4 µM (≈ 6.16 µg/mL); that for `CCCCCCCCCC[C@H]1OC(=O)CNC(=O)[C@H](CO)NC(=O)[C@H](CO)NC(=O)[C@H](C(C)C)NC(=O)[C@H](CC(C)C)N(C)C(=O)[C@@H]1C` [Example 39, (6S,9S,12S,15S,18R,19R)-19-decyl-6,9-bis(hydroxymethyl)-15-isobutyl-12-isopropyl-16,18-dimethyl-1-oxa-4,7,10,13,16-pentazacyclononadecane-2,5,8,11,14,17-hexone] was 25 µM (≈ 17.1 µg/mL).
Consider `CCCCCCCCCC[C@H]1OC(=O)[C@@H](CC)NC(=O)[C@H]([C@H](C)O)NC(=O)[C@H](CN)NC(=O)[C@H]([C@H](C)CC)NC(=O)[C@H](CC(C)C)N(C)C(=O)[C@@H]1C` [Example 93, (3R,6S,9S,12S,15S,18R,19R)-9-(aminomethyl)-19-decyl-3-ethyl-15-isobutyl-16,18-dimethyl-6-[(1S)-1-hydroxyethyl]-12-[(1R)-1-methylpropyl]-1-oxa-4,7,10,13,16-pentazacyclononadecane-2,5,8,11,14,17-hexone], for which the MIC was found to be 10 µM (≈ 7.39 µg/mL).
As to `CC[C@@H](C)[C@@H]1NC(=O)[C@H](CC(C)C)N(C)C(=O)[C@H](C)[C@@H](CCCCC(C)(C)C)OC(=O)CNC(=O)[C@H]([C@H](C)O)NC(=O)[C@H](CN)NC1=O` [Example 49, (6S,9S,12S,15S,18R,19R)-9-(aminomethyl)-19-(5,5-dimethylhexyl)-6-[(1S)-1-hydroxyethyl]-15-isobutyl-16,18-dimethyl-12-[(1R)-1-methylpropyl]-1-oxa-4,7,10,13,16-pentazacyclononadecane-2,5,8,11,14,17-hexone], the MIC came to 3.1 µM (≈ 2.12 µg/mL).
As for `CCCCCCCCCC[C@H]1OC(=O)CNC(=O)[C@H]([C@H](C)O)NC(=O)[C@H](CO)NC(=O)[C@H]([C@@H](C)CC)NC(=O)[C@H](CC(C)C)N(C)C(=O)[C@@H]1C` [Example 22, (6S,9S,12S,15S,18R,19R)-19-decyl-6-[(1S)-1-hydroxyethyl]-9-(hydroxymethyl)-15-isobutyl-16,18-dimethyl-12-[(1S)-1-methylpropyl]-1-oxa-4,7,10,13,16-pentazacyclononadecane-2,5,8,11,14,17-hexone], the MIC stood at 13 µM (≈ 9.26 µg/mL).
On the same count and under the same terms, the value for `CCCCCCC1OC(=O)CNC(=O)[C@H]([C@H](C)O)NC(=O)[C@H](CN)NC(=O)[C@H]([C@H](C)CC)NC(=O)[C@H](CC(C)C)N(C)C(=O)C1(F)F` (stereo partly drawn) [Example 61, (6S,9S,12S,15S)-9-(Aminomethyl)-12-((R)-sec-butyl)-18,18-difluoro-19-hexyl-6-((S)-1-hydroxyethyl)-15-isobutyl-16-methyl-1-oxa-4,7,10,13,16-pentaazacyclononadecane-2,5,8,11,14,17-hexaone] was 6.3 µM (≈ 4.26 µg/mL).
In turn, `CCCCCC[C@H]1OC[C@@H](C)NC(=O)[C@H]([C@H](C)O)NC(=O)[C@H](CN)NC(=O)[C@H](C2CCN(c3ccccc3)CC2)NC(=O)[C@H](CC(C)C)N(C)C(=O)[C@@H]1C` [Example 148, (3R,6S,9S,12S,15S,18R,19R)-9-(Aminomethyl)-19-hexyl-6-((S)-1-hydroxyethyl)-15-isobutyl-3,16,18-trimethyl-12-(1-phenylpiperidin-4-yl)-1-oxa-4,7,10,13,16-pentaazacyclononadecane-5,8,11,14,17-pentaone] gave an MIC of 8.8 µM (≈ 6.67 µg/mL).
For the compound `CCC(F)CCC[C@H]1OC(=O)CNC(=O)[C@H]([C@H](C)O)NC(=O)[C@H](CN)NC(=O)[C@H]([C@H](C)CC)NC(=O)[C@H](CC(C)C)N(C)C(=O)[C@@H]1C` (stereo partly drawn) [Example 122, (6S,9S,12S,15S,18R,19R)-9-(aminomethyl)-19-(4-fluorohexyl)-15-isobutyl-16,18-dimethyl-6-[(1S)-1-hydroxyethyl]-12-[(1R)-1-methylpropyl]-1-oxa-4,7,10,13,16-pentazacyclononadecane-2,5,8,11,14,17-hexone], the MIC came to 25 µM (≈ 16.8 µg/mL).
Compound `CCCCCC[C@H]1OCCNC(=O)[C@H](CO[C@H]2C[C@H](N)C2)NC(=O)[C@H](CN)NC(=O)[C@H](C2CCCCCC2)NC(=O)[C@H](CCC)N(C)C(=O)[C@@H]1C` [Example 80, (6S,9S,12S,15S,18R,19R)-6-(((1r,3S)-3-Aminocyclobutoxy)methyl)-9-(aminomethyl)-12-cycloheptyl-19-hexyl-16,18-dimethyl-15-propyl-1-oxa-4,7,10,13,16-pentaazacyclononadecane-5,8,11,14,17-pentaone] (cyclo([Dap]S(Cyclobutyl(trans-3-NH2))[X14][NMeNva][Gly(cHept)])) yielded an MIC of 12 µM (≈ 8.66 µg/mL).
As for `CCCC[C@H]1OC(=O)CNC(=O)[C@H]([C@H](C)O)NC(=O)[C@H](CN)NC(=O)[C@H](C2CCCCC2)NC(=O)[C@H](CC(C)C)N(C)C(=O)[C@@H]1CCCC` [Example 66, (6S,9S,12S,15S,18R,19R)-9-(Aminomethyl)-18,19-dibutyl-12-cyclohexyl-6-((S)-1-hydroxyethyl)-15-isobutyl-16-methyl-1-oxa-4,7,10,13,16-pentaazacyclononadecane-2,5,8,11,14,17-hexaone], the MIC is 1.3 µM (≈ 0.903 µg/mL).
Compound `CCCCCC[C@H]1OC[C@@H](C)NC(=O)[C@H](CNCCN)NC(=O)[C@H](CN)NC(=O)[C@H](C2CCCCCC2)NC(=O)[C@H](CC(C)C)N(C)C(=O)[C@@H]1C` [Example 161, (3R,6S,9S,12S,15S,18R,19R)-6-[(2-Aminoethylamino)methyl]-9-(aminomethyl)-12-cycloheptyl-19-hexyl-15-isobutyl-3,16,18-trimethyl-1-oxa-4,7,10,13,16-pentazacyclononadecane-5,8,11,14,17-pentone] returned an MIC of 6.3 µM (≈ 4.56 µg/mL).

The same experiment, now with this note: E. coli CFT073 ATCC 700928; Mueller Hinton II cation adjusted Broth with 0.002% v/v Tween-80; 35° C. for 22 hours; lowest concentration that completely prevented bacterial growth.
Compound `CCCCCCCCCC[C@H]1OC(=O)CNC(=O)[C@H](CO)NC(=O)[C@H](CO)NC(=O)[C@H]([C@@H](C)CC)NC(=O)[C@H](CC(C)C)N(C)C(=O)[C@@H]1C` [Example 18, (6S,9S,12S,15S,18R,19R)-19-decyl-6,9-bis(hydroxymethyl)-15-isobutyl-16,18-dimethyl-12-[(1S)-1-methylpropyl]-1-oxa-4,7,10,13,16-pentazacyclononadecane-2,5,8,11,14,17-hexone] showed an MIC of 19 µM (≈ 13.3 µg/mL).
